Assay results from patent publication US9023851B2 (Merck Patent GmbH, priority 2010, dated 2015).

Legend:
Format in all cases: biochemical
ZAP-70 = target: T1, ZAP-70 (Homo sapiens, UniProt P43403); assay: Zap70 enzymatic assay (Caliper LifeSciences technology)
T1 construct: purchased BPS Bioscience, CA, USA
T1 sequence (P43403 1-619): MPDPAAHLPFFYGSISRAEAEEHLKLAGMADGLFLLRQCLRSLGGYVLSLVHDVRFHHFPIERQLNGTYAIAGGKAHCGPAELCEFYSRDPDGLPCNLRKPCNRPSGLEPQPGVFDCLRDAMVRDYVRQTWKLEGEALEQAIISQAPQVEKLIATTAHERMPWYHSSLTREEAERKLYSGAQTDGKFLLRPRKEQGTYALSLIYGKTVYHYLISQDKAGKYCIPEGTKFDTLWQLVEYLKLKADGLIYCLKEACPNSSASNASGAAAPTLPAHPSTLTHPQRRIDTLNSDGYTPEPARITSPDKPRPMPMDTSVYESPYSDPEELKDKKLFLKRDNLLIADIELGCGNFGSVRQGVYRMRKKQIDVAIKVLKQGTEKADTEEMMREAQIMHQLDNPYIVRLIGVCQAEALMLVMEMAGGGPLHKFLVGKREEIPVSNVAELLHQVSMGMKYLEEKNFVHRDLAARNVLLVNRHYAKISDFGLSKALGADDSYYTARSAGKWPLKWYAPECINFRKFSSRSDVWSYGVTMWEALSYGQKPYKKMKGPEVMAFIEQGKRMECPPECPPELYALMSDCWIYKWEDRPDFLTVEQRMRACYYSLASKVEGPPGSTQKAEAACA
Protocol: (§1) Enzymatic Assays Using the Caliper LifeSciences Technology
(§2) The assays described here are performed on the Caliper Life Sciences LC3000 system This technology provides data on enzyme activity via measurement of the relative amounts of phosphorylated or unphosphorylated fluorescently labelled substrate peptide at the end of an enzymatic reaction. These different states of peptide are resolved by applying a potential difference across the sample. The presence of the charged phosphate group on the product (as opposed to the substrate) causes a different peptide mobility between the two peptides. This is visualized by excitation of the fluorescent label on the substrate and product peptides and represented as peaks within the analysis software.
(§3) In order to measure inhibitor activity of kinase inhibitors on this technology, a TTP Mosquito liquid handling instrument is used to place 0.25 ul of the appropriate concentration of inhibitor in 100% DMSO (for a dose response curve calculation) into each well of a 384-well plate. To this reaction components are added to a final volume of 25 ul. The table below indicates the sequences and concentrations for the assays described in this report. Standard components are 1 mM DTT (Sigma, D0632), 1 mM MgCl2 (Sigma, M1028), 100 mM HEPES pH 7.5 (Calbiochem, 391338), 0.015% Brij-35 (Sigma, B4184).
(§4) The reaction is incubated for 90 min at 25 C, and then stopped by the addition of 70 ul of Stop buffer (100 mM HEPES pH 7.5, 0.015% Brij-35, 10 mM EDTA (Sigma, E7889)).
(§5) The plate is read on a Caliper LC 3000 in an Off-Chip mobility shift assay format, on a 12-sipper chip. Unphosphorylated substrate and phosphorylated product peptide resolve as separate peaks allowing direct measurement of percentage of conversion of substrate to product. The percent conversion can be plotted against concentration of inhibitor to produce a sigmoidal dose response curve, from which an IC50 can be calculated using GeneData Condoseo or a similar product. Cellular activity assays

Syk = target: T2, Syk (Homo sapiens, UniProt P43405); assay: Syk enzyme assay (flash plate / Caliper mobility shift)
T2 construct: purchased BPS Bioscience, CA, USA
Protocol: The kinase assay is performed either as 384-well Flashplate assay (for e.g. Topcount measurement) or as 384-well Image-Flashplate assay (for LEADseeker measurement).
2.5 nM SYK, 400 nM Biotin-Aha-Aha-[…] and 10 μM ATP (spiked with 0.3 μCi 33P-ATP/well) are incubated in a total volume of 50 μl (60 mM Hepes, 10 mM MgCl2, 1.2 mM Dithiothreitol, 0.02% Brij35, 0.1% BSA, pH 7.5) with or without test compound for 1 hours at 30° C. The reaction is stopped with 25 μl 200 mM EDTA. After 30 Min at 30° C. the liquid is removed and each well washed thrice with 100 μl 0.9% sodium chloride solution. Non-specific reaction is determined in presence of 0.1 μM Staurosporine. Radioactivity is measured with Topcount (when using Flashplates) or with LEADseeker (when using Image-Flashplates) respectively. Results (e.g. IC50-values) are calculated with program tools provided by the IT-department (e.g. Symyx Assay Explorer, Genedata Screener).
as §1, §2, §3, §4, §5

KDR = target: T3, KDR (Homo sapiens, UniProt P35968); assay: KDR enzymatic assay (Caliper LifeSciences technology)
T3 construct: purchased BPS Bioscience, CA, USA
Protocol: as §1, §2, §3, §4, §5

T3 sequence (P35968 20-1356): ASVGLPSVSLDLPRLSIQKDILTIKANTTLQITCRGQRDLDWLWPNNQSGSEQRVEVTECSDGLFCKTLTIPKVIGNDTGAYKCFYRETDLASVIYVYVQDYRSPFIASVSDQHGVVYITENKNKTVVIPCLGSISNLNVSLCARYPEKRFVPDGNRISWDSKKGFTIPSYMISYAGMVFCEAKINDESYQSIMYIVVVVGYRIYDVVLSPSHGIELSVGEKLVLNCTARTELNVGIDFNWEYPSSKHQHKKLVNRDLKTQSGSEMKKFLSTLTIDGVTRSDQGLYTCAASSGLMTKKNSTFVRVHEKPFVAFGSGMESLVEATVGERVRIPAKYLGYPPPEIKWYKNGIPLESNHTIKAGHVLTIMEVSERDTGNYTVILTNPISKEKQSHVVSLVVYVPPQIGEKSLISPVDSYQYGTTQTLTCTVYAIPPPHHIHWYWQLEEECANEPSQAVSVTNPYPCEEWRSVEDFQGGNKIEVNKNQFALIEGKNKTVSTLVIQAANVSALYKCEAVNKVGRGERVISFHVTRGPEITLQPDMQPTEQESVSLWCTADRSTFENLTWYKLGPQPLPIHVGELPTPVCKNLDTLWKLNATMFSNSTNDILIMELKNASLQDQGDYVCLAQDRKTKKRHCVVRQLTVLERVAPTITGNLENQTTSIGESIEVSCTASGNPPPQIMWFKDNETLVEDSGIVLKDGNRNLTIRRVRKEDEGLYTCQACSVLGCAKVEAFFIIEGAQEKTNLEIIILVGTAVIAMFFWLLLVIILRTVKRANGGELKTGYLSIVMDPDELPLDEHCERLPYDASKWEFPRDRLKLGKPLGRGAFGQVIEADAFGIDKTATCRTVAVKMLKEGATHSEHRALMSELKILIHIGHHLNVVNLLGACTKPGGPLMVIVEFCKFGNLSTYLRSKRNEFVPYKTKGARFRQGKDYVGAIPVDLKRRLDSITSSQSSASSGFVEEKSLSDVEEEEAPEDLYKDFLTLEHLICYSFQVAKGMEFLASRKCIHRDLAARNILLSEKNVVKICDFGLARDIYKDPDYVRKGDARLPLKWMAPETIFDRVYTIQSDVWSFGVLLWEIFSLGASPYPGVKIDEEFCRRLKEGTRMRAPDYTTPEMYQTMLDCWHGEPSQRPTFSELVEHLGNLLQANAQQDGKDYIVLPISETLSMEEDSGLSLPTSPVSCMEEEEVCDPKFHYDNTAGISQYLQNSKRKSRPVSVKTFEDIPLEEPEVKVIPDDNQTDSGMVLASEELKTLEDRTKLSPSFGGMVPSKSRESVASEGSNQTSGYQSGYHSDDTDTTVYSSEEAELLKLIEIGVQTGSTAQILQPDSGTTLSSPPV

Structure (SMILES)	IC50 (ZAP-70)	IC50 (Syk)	IC50 (KDR)
COc1cc(OC)cc(-c2nccn3nc(Nc4ccc5cnn(Cc6ccccc6)c5c4)nc23)c1 [Example C26, (1-Benzyl-1H-indazol-6-yl)-[8-(3,5-dimethoxy-phenyl)-[1,2,4]triazolo[1,5-a]pyrazin-2-yl]-amine]	0.3 to 3 µM	0.3 to 3 µM	–
Cn1ccnc1Sc1ccc(Nc2nc3c(Nc4ccccc4)nccn3n2)cc1Cl [Example C80, N^2-[3-Chloro-4-(1-methyl-1H-imidazol-2-ylsulfanyl)-phenyl]-N^8-phenyl-[1,2,4]triazolo[1,5-a]pyrazine-2,8-diamine]	0.3 to 3 µM	3 to 50 µM	–
O=C1Cc2cc(Nc3nc4c(-c5cnc6ccccc6c5)nccn4n3)ccc2N1 [Example C263, 5-(8-Quinolin-3-yl-[1,2,4]triazolo[1,5-a]pyrazin-2-ylamino)-1,3-dihydro-indol-2-one]	3 to 50 µM	3 to 50 µM	–
NCCNc1nccn2nc(Nc3cccc(C(F)(F)F)c3)nc12 [Example C41, N^8-(2-Amino-ethyl)-N^2-(3-trifluoromethyl-phenyl)-[1,2,4]triazolo[1,5-a]pyrazine-2,8-diamine]	3 to 50 µM	3 to 50 µM	3 to 50 µM
COc1cc(Nc2nccn3nc(Nc4ccc(Sc5nccn5C)c(Cl)c4)nc23)cc(OC)c1 [Example C78, N^2-[3-Chloro-4-(1-methyl-1H-imidazol-2-ylsulfanyl)-phenyl]-N^8-(3,5-dimethoxy-phenyl)-[1,2,4]triazolo[1,5-a]pyrazine-2,8-diamine]	3 to 50 µM	3 to 50 µM	–
c1ccc(Nc2nc3c(NCCCN4CCOCC4)nccn3n2)cc1 [Example C51, N^8-(3-Morpholin-4-yl-propyl)-N^2-phenyl-[1,2,4]triazolo[1,5-a]pyrazine-2,8-diamine]	0.3 to 3 µM	–	3 to 50 µM
FC(F)(F)c1cccc(Nc2nc3c(Nc4ccccc4)nccn3n2)c1 [Example C88, N^8-Phenyl-N^2-(3-trifluoromethyl-phenyl)-[1,2,4]triazolo[1,5-a]pyrazine-2,8-diamine]	3 to 50 µM	–	–
COc1cc(OC)cc(-c2nccn3nc(Nc4ccc(Sc5nccn5C)c(Cl)c4)nc23)c1 [Example C25, [3-Chloro-4-(1-methyl-1H-imidazol-2-ylsulfanyl)-phenyl]-[8-(3,5-dimethoxy-phenyl)-[1,2,4]triazolo[1,5-a]pyrazin-2-yl]-amine]	3 to 50 µM	3 to 50 µM	3 to 50 µM
Cc1cccc(Nc2nc3c(-c4cccnc4)nccn3n2)c1 [Example C21, (8-Pyridin-3-yl-[1,2,4]triazolo[1,5-a]pyrazin-2-yl)-m-tolyl-amine]	3 to 50 µM	0.3 to 3 µM	0.3 to 3 µM
FC(F)(F)c1cccc(Nc2nccn3nc(Nc4ccccc4)nc23)c1 [Example C76, N^2-Phenyl-N^8-(3-trifluoromethyl-phenyl)-[1,2,4]triazolo[1,5-a]pyrazine-2,8-diamine]	3 to 50 µM	3 to 50 µM	–
c1ccc(Cn2ncc3ccc(Nc4nc5c(Nc6ccccc6)nccn5n4)cc32)cc1 [Example C85, N^2-(1-Benzyl-1H-indazol-6-yl)-N^8-phenyl-[1,2,4]triazolo[1,5-a]pyrazine-2,8-diamine]	0.3 to 3 µM	–	–
COc1cc(Nc2nccn3nc(Nc4cccc(C(F)(F)F)c4)nc23)cc(OC)c1 [Example C87, N^8-(3,5-Dimethoxy-phenyl)-N^2-(3-trifluoromethyl-phenyl)-[1,2,4]triazolo[1,5-a]pyrazine-2,8-diamine]	3 to 50 µM	–	–
Clc1nccn2nc(Nc3ccccc3)nc12 [Example B5, 8-Chloro-[1,2,4]triazolo[1,5-a]pyrazin-2-yl-phenyl-amine]	3 to 50 µM	3 to 50 µM	–
CN1CCN(CCCNc2nccn3nc(Nc4ccccc4)nc23)CC1 [Example C52, N^8-[3-(4-Methyl-piperazin-1-yl)-propyl]-N^2-phenyl-[1,2,4]triazolo[1,5-a]pyrazine-2,8-diamine]	3 to 50 µM	–	3 to 50 µM
Cc1cccc(Nc2nc3c(-c4ccccc4)nccn3n2)c1 [Example C1, (8-Phenyl-[1,2,4]triazolo[1,5-a]pyrazin-2-yl)-m-tolyl-amine]	3 to 50 µM	0.3 to 3 µM	< 0.3 µM
c1ccc(Cn2ncc3ccc(Nc4nc5c(-c6cccnc6)nccn5n4)cc32)cc1 [Example C27, (1-Benzyl-1H-indazol-6-yl)-(8-pyridin-3-yl-[1,2,4]triazolo[1,5-a]pyrazin-2-yl)-amine]	3 to 50 µM	0.3 to 3 µM	–
Cn1ccnc1Sc1ccc(Nc2nc3c(Cl)nccn3n2)cc1Cl [Example B6, [3-Chloro-4-(1-methyl-1H-imidazol-2-ylsulfanyl)-phenyl]-(8-chloro-[1,2,4]triazolo[1,5-a]pyrazin-2-yl)-amine]	3 to 50 µM	3 to 50 µM	–
COc1cc(OC)cc(-c2nccn3nc(Nc4ccccc4)nc23)c1 [Example C18, [8-(3,5-Dimethoxy-phenyl)-[1,2,4]triazolo[1,5-a]pyrazin-2-yl]-phenyl-amine]	3 to 50 µM	< 0.3 µM	–
CN1CCN(CCCNc2nccn3nc(Nc4cccc(C(F)(F)F)c4)nc23)CC1 [Example C43, N^843-(4-Methyl-piperazin-1-yl)-propyq-N^2-(3-trifluoromethyl-phenyl)-[1,2,4]triazolo[1,5-a]pyrazine-2,8-diamine]	3 to 50 µM	–	3 to 50 µM
Cc1cccc(Nc2nccn3nc(Nc4ccc(Sc5nccn5C)c(Cl)c4)nc23)c1 [Example C79, N^2-[3-Chloro-4-(1-methyl-1H-imidazol-2-ylsulfanyl)-phenyl]-N^8-m-tolyl-[1,2,4]triazolo[1,5-a]pyrazine-2,8-diamine]	0.3 to 3 µM	3 to 50 µM	–
Cc1cc(C)cc(Nc2nc3c(Cl)nccn3n2)c1 [Example B1, 8-Chloro-[1,2, 4]triazolo[1,5-a]pyrazin-2-yl-(3,5-dimethyl-phenyl)-amine]	0.3 to 3 µM	3 to 50 µM	3 to 50 µM
COCCCNc1nccn2nc(Nc3cccc(C(F)(F)F)c3)nc12 [Example C44, N^8-(3-Methoxy-propyl)-N^2-(3-trifluoromethyl-phenyl)-[1,2,4]triazolo[1,5-a]pyrazine-2,8-diamine]	3 to 50 µM	3 to 50 µM	–
Cc1cc(C)cc(Nc2nccn3nc(Nc4cccc(C(F)(F)F)c4)nc23)c1 [Example C86, N^8-(3,5-Dimethyl-phenyl)-N^2-(3-trifluoromethyl-phenyl)-[1,2,4]triazolo[1,5-a]pyrazine-2,8-diamine]	3 to 50 µM	–	–
Cc1cc(C)cc(Nc2nccn3nc(Nc4ccc5cnn(Cc6ccccc6)c5c4)nc23)c1 [Example C81, N^2-(1-Benzyl-1H-indazol-6-yl)-N^8-(3,5-dimethyl-phenyl)-[1,2,4]triazolo[1,5-a]pyrazine-2,8-diamine]	3 to 50 µM	3 to 50 µM	–
Cc1cc(C)cc(Nc2nccn3nc(Nc4ccc(Sc5nccn5C)c(Cl)c4)nc23)c1 [Example C77, N^2-[3-Chloro-4-(1-methyl-1H-imidazol-2-ylsulfanyl)-phenyl]-N^8-(3,5-dimethyl-phenyl)-[1,2,4]triazolo[1,5-a]pyrazine-2,8-diamine]	3 to 50 µM	3 to 50 µM	–
